By Kd is commonly meant the constant that tells how readily two partners part at equilibrium. Broadly, the IC50 is the point on the concentration scale where inhibition reaches its midpoint. The inhibition is the relative decrease from the control value, in per cent.

The source of these data is patent US9290476B2, “Methylene linked quinolinyl modulators of RORγt” (Janssen Pharmaceutica NV, priority 2012, dated 2016).

SMILES strings stand for the structures. Where a name gives a salt, the structure may show the parent alone. Read-outs that look alike come from different tables or passages of the source.

Test [1] addresses human RORγt ligand binding domain (RORγt LBD) (Homo sapiens (Human), UniProt P51449). The experiment in a line: RORγt ThermoFluor assay (thermal shift binding affinity). The following applies: estimated from thermal shift. The essentials:
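Thermal shift used 0.065 mg/mL RORγt LBD with 60 μM 1,8-ANS in 100 mM Hepes pH 7.0, 10 mM NaCl, 2.5 mM GSH and 0.002% Tween-20, heated at 1 °C/min. Fluorescence was excited at 380–400 nm and emission read at 500 nm.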

The next test concerns the target human RORγt LBD (Homo sapiens (Human), UniProt P51449). The test can be described thus: RORγt reporter assay (GAL4-RORγt LBD luciferase in HEK293T cells). Type of test: cell-based. The following applies: for IC50 / RORγt reporter Assay, % inhibition @ 6 μM: HEK293T cells; for IC50: 24 hours compound treatment; for inhibition at 6 µM: HEK-293T, read-out: RORγt reporter Assay, % inhibition @ 6 μM, HEK293T cells, 6 μM. The essentials: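 HEK293T cells transiently co-transfected with GAL4-DBD–wild-type human RORγt LBD (pBIND) and GAL4-responsive firefly luciferase reporter (pGL4.31); renilla luciferase from pBIND normalises transfection/viability. Cells in phenol-red-free DMEM, 5% lipid-reduced FCS, treated with compound 24 h. Firefly/renilla ratio plotted against compound concentration.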

Test [2] deals with IL-17 production by CD4 T cells. The test can be described thus: Human Th17 assay (IL-17 production by CD4 T cells under Th17 differentiation). The following applies: human CD4+ T cells, IL-17 after 3 days, read-out: Human Th17 Assay, IC50 μM. Type of test: cell-based. The method, boiled down: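 Healthy-donor peripheral CD4+ T cells (1.5×10^5/well) preincubated 1 h with titrated compound (0.2% DMSO), then differentiated with anti-CD3/CD28 beads, anti-IL4, anti-IFNγ, IL1β, IL23, IL6, TGFβ and IL2 for 3 days at 37 °C. Supernatant IL-17 quantified by MSD electrochemiluminescence against a standard curve; IC50 fitted.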

Sequence of human RORγt ligand binding domain (RORγt LBD) (P51449 other isoform, or with tags, fused parts or gaps): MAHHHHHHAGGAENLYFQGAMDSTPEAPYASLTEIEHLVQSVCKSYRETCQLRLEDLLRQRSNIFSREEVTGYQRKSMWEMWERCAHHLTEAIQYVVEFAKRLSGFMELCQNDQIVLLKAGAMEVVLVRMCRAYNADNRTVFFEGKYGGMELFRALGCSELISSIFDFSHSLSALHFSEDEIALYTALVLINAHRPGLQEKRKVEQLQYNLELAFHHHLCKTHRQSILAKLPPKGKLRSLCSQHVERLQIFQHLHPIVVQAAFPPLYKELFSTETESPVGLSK
Sequence of human RORγt LBD (P51449 258-518): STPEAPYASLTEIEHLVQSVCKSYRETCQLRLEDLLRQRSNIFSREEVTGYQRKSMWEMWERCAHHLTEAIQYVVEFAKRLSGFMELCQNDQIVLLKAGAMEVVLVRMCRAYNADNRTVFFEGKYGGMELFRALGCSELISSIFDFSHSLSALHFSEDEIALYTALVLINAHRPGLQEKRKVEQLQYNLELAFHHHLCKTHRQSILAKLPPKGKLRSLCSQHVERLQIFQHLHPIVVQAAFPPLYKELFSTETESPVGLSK

As to `COc1nc2ccc(C(O)(c3ccc(C(F)(F)F)nc3)c3cncn3C)cc2c(C#N)c1Cc1ccc(-n2cccn2)cc1` (single isomer, unassigned) [Example 73B, 3-(4-(1H-Pyrazol-1-yl)benzyl)-6-(hydroxy(1-methyl-1H-imidazol-5-yl)(6-(trifluoromethyl)pyridin-3-yl)methyl)-2-methoxyquinoline-4-carbonitrile], the dissociation constant Kd in test [1] was 4.5 nM. Moreover, at human RORγt LBD, the concentration for half-maximal inhibition (IC50) was determined as 0.046 µM and the inhibition at 6 µM is 97%. Also, in test [2], the 50% inhibitory concentration (IC50) was determined as 0.02 µM.

With `CS(=O)(=O)c1ccc(Cc2c(Cl)nc3ccc(C(O)(c4cccnc4)c4cccc(Cl)c4)cc3c2Cl)cc1` (stereo not drawn) [Example 8, (3-Chlorophenyl)(2,4-dichloro-3-(4-(methylsulfonyl)benzyl)quinolin-6-yl)(pyridin-3-yl)methanol.TFA], the Kd in test [1] is 43 nM. Moreover, on human RORγt LBD, the half-maximal inhibitory concentration (IC50) was 0.068 µM and the inhibition at 6 µM came to 103%. Further, the 50% inhibitory concentration (IC50) in test [2] (Homo sapiens, CD4+ T, 72 h) is 0.079 µM.

As for `COc1nc2ccc(C(O)(c3cnnn3C)C3CN(C(C)=O)C3)cc2c(Cl)c1Cc1ccc(C(F)(F)F)cc1` (single isomer, unassigned) [Example 97B, 1-(3-((4-Chloro-2-methoxy-3-(4-(trifluoromethyl)benzyl)quinolin-6-yl)(hydroxy)(1-methyl-1H-1,2,3-triazol-5-yl)methyl)azetidin-1-yl)ethanone], the Kd in test [1] is 1.4 nM. On human RORγt LBD, the IC50 is 0.0059 µM and the inhibition at 6 µM was found to be 98%. The concentration for half-maximal inhibition (IC50) in test [2] came out at 0.0034 µM.

`Cn1cncc1C(O)(c1ccc(C(F)(F)F)nc1)c1ccc2nc(N3CCC3)c(Cc3ccc(-n4cccn4)cc3)c(Cl)c2c1` (single isomer, unassigned) [Example 68B, (3-(4-(1H-pyrazol-1-yl)benzyl)-2-(azetidin-1-yl)-4-chloroquinolin-6-yl)(1-methyl-1H-imidazol-5-yl)(6-(trifluoromethyl)pyridin-3-yl)methanol]: the Kd in test [1] is 2.1 nM. Moreover, at human RORγt LBD, the IC50 is ~0.05 µM and the inhibition at 6 µM stood at 96%. Besides, the IC50 in test [2] stood at 0.01 µM.

As for `OC(c1cccnc1)(c1cccc(F)c1)c1ccc2nc(Cl)c(Cc3ccc(-n4cccn4)cc3)c(Cl)c2c1` (stereo not drawn) [Example 48, (3-(4-(1H-Pyrazol-1-yl)benzyl)-2,4-dichloroquinolin-6-yl)(3-fluorophenyl)(pyridin-3-yl)methanol], the Kd in test [1] is 10 nM. On human RORγt LBD, the IC50 was found to be 0.058 µM and the inhibition at 6 µM stood at 100%. Further, the IC50 in test [2] (Homo sapiens, CD4+ T, 72 h) was determined as 0.04 µM.

In the case of `Cc1cc(C(O)(c2ccc(C(F)(F)F)nc2)c2cncn2C)cc2c(C#N)c(Cc3ccc(-n4cccn4)cc3)c(C#N)nc12` (single isomer, unassigned) [Example 65B, 3-(4-(1H-pyrazol-1-yl)benzyl)-6-(hydroxy(1-methyl-1H-imidazol-5-yl)(6-(trifluoromethyl)pyridin-3-yl)methyl)-8-methylquinoline-2,4-dicarbonitrile], in test [1], the Kd is 140 nM. On human RORγt LBD, 0.13 µM corresponded to half-maximal inhibition (IC50) and the inhibition at 6 µM is 101%. In test [2], the 50% inhibitory concentration (IC50) was 0.22 µM.

On to `COc1nc2c(C)cc(C(O)(c3ccc(Cl)cc3)c3cncn3C)cc2c(Cl)c1Cc1ccc(-n2cccn2)cc1` (stereo not drawn) [Example 28A, (3-(4-(1H-Pyrazol-1-yl)benzyl)-4-chloro-2-methoxy-8-methylquinolin-6-yl)(4-chlorophenyl)(1-methyl-1H-imidazol-5-yl)methanol.TFA], for which the dissociation constant Kd in test [1] is 53 nM. Besides, on human RORγt LBD, the IC50 is 0.18 µM and the inhibition at 6 µM is 100%. For the same molecule, the IC50 in test [2] (Homo sapiens, CD4+ T, 72 h) came to 0.2 µM.

Turning to `COc1ccc(C(O)(c2ccc3nc(OC)c(Cc4ccc(-n5cccn5)cc4)c(Cl)c3c2)c2cncs2)cn1` (single isomer, unassigned) [Example 20B, (3-(4-(1H-pyrazol-1-yl)benzyl)-4-chloro-2-methoxyquinolin-6-yl)(6-methoxypyridin-3-yl)(thiazol-5-yl)methanol], the dissociation constant (Kd) in test [1] was 1.4 nM. At human RORγt LBD, the IC50 was determined as 0.047 µM and the inhibition at 6 µM stood at 100%. The concentration for half-maximal inhibition (IC50) in test [2] (Homo sapiens, CD4+ T, 72 h) came out at 0.039 µM.

In the case of `COc1nc2ccc(C(O)(c3ccc(Cl)cc3)c3cncn3C)cc2c(Cl)c1Cc1cc2ccccc2s1` (stereo not drawn) [Example 36A, (3-(Benzo[b]thiophen-2-ylmethyl)-4-chloro-2-methoxyquinolin-6-yl)(4-chlorophenyl)(1-methyl-1H-imidazol-5-yl)methanol], the dissociation constant (Kd) in test [1] was 40 nM. Further, the half-maximal inhibitory concentration (IC50) came out at 0.18 µM at human RORγt LBD and 0.1 µM in test [2] (Homo sapiens, CD4+ T, 72 h). For the same molecule, the inhibition at 6 µM on human RORγt LBD worked out at 98%.

In the case of `COc1nc2ccc(C(O)(c3sc(C)nc3C)c3cnnn3C)cc2c(Cl)c1Cc1ccc(C(F)(F)F)cc1` (single isomer, unassigned) [Example 79B, (4-Chloro-2-methoxy-3-(4-(trifluoromethyl)benzyl)quinolin-6-yl)(2,4-dimethylthiazol-5-yl)(1-methyl-1H-1,2,3-triazol-5-yl)methanol], the Kd in test [1] is 57 nM. Besides, at human RORγt LBD, the half-inhibitory concentration (IC50) is 0.038 µM and the inhibition at 6 µM worked out at 99%. Moreover, in test [2] (Homo sapiens, CD4+ T, 72 h), the half-inhibitory concentration (IC50) turned out to be 0.052 µM.

Regarding `Cc1cc(C(O)(c2ccc(C(F)(F)F)nc2)c2cncn2C)cc2c(C#N)c(Cc3ccc(-n4cccn4)cc3)c(C#N)nc12` (single isomer, unassigned) [Example 65C, 3-(4-(1H-pyrazol-1-yl)benzyl)-6-(hydroxy(1-methyl-1H-imidazol-5-yl)(6-(trifluoromethyl)pyridin-3-yl)methyl)-8-methylquinoline-2,4-dicarbonitrile], in test [1], the Kd is 4.2 nM. Besides, the “RORγt reporter Assay, % inhibition @ 6 μM” value at human RORγt LBD is recorded as 100%. The IC50 against human RORγt LBD worked out at 0.046 µM; in test [2], 0.045 µM.

`CCN(CC)c1nc2ccc(C(O)(c3ccc(Cl)cc3)c3cncn3C)cc2c(Cl)c1Cc1ccc(-n2cccn2)cc1` (single isomer, unassigned) [Example 75C, (3-(4-(1H-Pyrazol-1-yl)benzyl)-4-chloro-2-(diethylamino)quinolin-6-yl)(4-chlorophenyl)(1-methyl-1H-imidazol-5-yl)methanol]: the Kd in test [1] was 150 nM. In addition, the “RORγt reporter Assay, % inhibition @ 6 μM” value at human RORγt LBD is recorded as 90%. In addition, the IC50 at human RORγt LBD was found to be 0.18 µM; in test [2] (Homo sapiens, CD4+ T, 72 h), 0.14 µM.

Take `COc1ccc(C(O)(c2cccnc2)c2ccc3nc(Cl)c(Cc4ccc(-n5cccn5)cc4)c(Cl)c3c2)cc1` (stereo not drawn) [Example 47, (3-(4-(1H-Pyrazol-1-yl)benzyl)-2,4-dichloroquinolin-6-yl)(4-methoxyphenyl)(pyridin-3-yl)methanol]: the Kd in test [1] was 140 nM. In addition, the IC50 against human RORγt LBD was 0.17 µM; in test [2] (Homo sapiens, CD4+ T, 72 h) it was 0.18 µM. Further, the inhibition at 6 µM at human RORγt LBD came out at 102%.

As for `COc1nc2ccc(C(O)(c3cnnn3C)C3CN(C(C)=O)C3)cc2c(Cl)c1Cc1ccc(C(F)(F)F)cc1` (racemic) [Example 97A, 1-(3-((4-Chloro-2-methoxy-3-(4-(trifluoromethyl)benzyl)quinolin-6-yl)(hydroxy)(1-methyl-1H-1,2,3-triazol-5-yl)methyl)azetidin-1-yl)ethanone], the Kd in test [1] was 1.4 nM. Moreover, on human RORγt LBD, inhibition was half-maximal at 0.0042 µM (IC50) and the inhibition at 6 µM was found to be 100%. The half-inhibitory concentration (IC50) in test [2] (Homo sapiens, CD4+ T, 72 h) was determined as 0.0014 µM.

Turning to `COc1nc2ccc(C(O)(c3cnc(C)n3C)c3cnc(C)n3C)cc2c(Cl)c1Cc1ccc(C(F)(F)F)cc1` [Example 93, (4-Chloro-2-methoxy-3-(4-(trifluoromethyl)benzyl)quinolin-6-yl)bis(1,2-dimethyl-1H-imidazol-5-yl)methanol], the Kd in test [1] was 0.017 nM. Further, the half-inhibitory concentration (IC50) against human RORγt LBD amounted to 0.16 µM; in test [2] (Homo sapiens, CD4+ T, 72 h), 0.01 µM. Moreover, on human RORγt LBD, the inhibition at 6 µM came to 87%.

In the case of `CCN(C)c1nc2ccc(C(O)(c3ccc(Cl)cc3)c3cncn3C)cc2c(Cl)c1Cc1ccc(-n2cccn2)cc1` (stereo not drawn) [Example 17, (3-(4-(1H-Pyrazol-1-yl)benzyl)-4-chloro-2-(ethyl(methyl)amino)quinolin-6-yl)(4-chlorophenyl)(1-methyl-1H-imidazol-5-yl)methanol.TFA], the equilibrium dissociation constant (Kd) in test [1] was 310 nM. At human RORγt LBD, the IC50 came to 0.38 µM and the inhibition at 6 µM amounted to 96%. In addition, the IC50 in test [2] (Homo sapiens, CD4+ T, 72 h) is 1.2 µM.

With `COc1nc2c(C)cc(C(O)(c3ccc(C(F)(F)F)nc3)c3cncn3C)cc2c(Cl)c1Cc1ccc(-n2cccn2)cc1` (single isomer, unassigned) [Example 29C, (3-(4-(1H-pyrazol-1-yl)benzyl)-4-chloro-2-methoxy-8-methylquinolin-6-yl)(1-methyl-1H-imidazol-5-yl)(6-(trifluoromethyl)pyridin-3-yl)methanol], in test [1], the Kd is 4.9 nM. Also, on human RORγt LBD, the “RORγt reporter Assay, % inhibition @ 6 μM” value is listed as 97% and the half-inhibitory concentration (IC50) is 0.081 µM. Besides, in test [2], the IC50 was 0.09 µM.

Turning to `COc1nc2ccc(C(O)(c3ccccc3)C3CCN(C(C)=O)CC3)cc2c(Cl)c1Cc1ccc(-n2cccn2)cc1` (single isomer, unassigned) [Example 83C, 1-(4-((3-(4-(1H-Pyrazol-1-yl)benzyl)-4-chloro-2-methoxyquinolin-6-yl)(hydroxy)(phenyl)methyl)piperidin-1-yl)ethanone], in test [1], the Kd was 77 nM. Further, on human RORγt LBD, the “RORγt reporter Assay, % inhibition @ 6 μM” value is given as 103% and the IC50 is 0.14 µM. The IC50 in test [2] was found to be 0.12 µM.
